Test results from patent publication US8691753B2 (priority 2009, dated 2014).
Where two headings read alike, the source gives them in different places.

How the values were obtained:
Format in all cases: biochemical
[1] = molecular target: MMP-1h (Homo sapiens (Human), UniProt P03956); test: Inhibition constant (Ki) on MMP-1h; details: read-out: Ki MMP-1h; human MMP-1
From the text: (§1) The inhibition constant Ki of these compounds has been determined according to the protocol described by Devel et al, 2006, J. Biol. Chem. (7).
(§2) In this table I and also in table II below, “h” corresponds to human. All of the compounds have therefore been evaluated on human MMPs.

[2] = molecular target: MMP-2h (Homo sapiens (Human), UniProt P08253); test: Inhibition constant (Ki) on MMP-2h; details: human MMP-2
Sequence of MMP-2h (P08253 110-660): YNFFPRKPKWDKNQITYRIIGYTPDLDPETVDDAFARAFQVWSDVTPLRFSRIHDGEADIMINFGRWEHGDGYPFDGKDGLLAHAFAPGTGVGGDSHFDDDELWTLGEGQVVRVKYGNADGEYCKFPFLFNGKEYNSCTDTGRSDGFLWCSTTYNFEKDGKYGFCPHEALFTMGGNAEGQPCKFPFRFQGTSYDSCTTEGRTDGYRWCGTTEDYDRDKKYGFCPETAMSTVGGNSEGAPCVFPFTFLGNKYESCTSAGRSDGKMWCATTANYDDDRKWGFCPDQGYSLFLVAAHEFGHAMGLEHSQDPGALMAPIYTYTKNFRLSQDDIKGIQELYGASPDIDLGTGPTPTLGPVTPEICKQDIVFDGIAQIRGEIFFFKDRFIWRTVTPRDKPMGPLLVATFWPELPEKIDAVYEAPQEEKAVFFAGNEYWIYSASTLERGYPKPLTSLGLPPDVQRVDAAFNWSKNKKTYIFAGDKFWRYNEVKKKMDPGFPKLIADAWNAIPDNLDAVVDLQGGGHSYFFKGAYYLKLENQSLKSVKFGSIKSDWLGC
Outline: (§3)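 Human MMPs; Ki by published enzyme-inhibition method.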

[3] = molecular target: MMP-3h (Homo sapiens (Human), UniProt P08254); test: Inhibition constant (Ki) on MMP-3h; details: human MMP-3
Sequence of MMP-3h (P08254 100-477): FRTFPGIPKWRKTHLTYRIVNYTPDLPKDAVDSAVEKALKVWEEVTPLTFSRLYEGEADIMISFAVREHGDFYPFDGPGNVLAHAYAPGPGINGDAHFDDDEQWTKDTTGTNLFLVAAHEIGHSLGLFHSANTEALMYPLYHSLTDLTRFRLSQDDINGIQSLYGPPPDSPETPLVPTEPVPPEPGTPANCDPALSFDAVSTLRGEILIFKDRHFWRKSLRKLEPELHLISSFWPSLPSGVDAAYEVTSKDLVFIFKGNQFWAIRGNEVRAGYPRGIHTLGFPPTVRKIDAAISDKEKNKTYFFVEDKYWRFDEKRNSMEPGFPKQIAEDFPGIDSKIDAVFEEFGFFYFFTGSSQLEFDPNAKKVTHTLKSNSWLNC
Outline: as §3

[4] = molecular target: MMP-7h (Homo sapiens (Human), UniProt P09237); test: Inhibition constant (Ki) on MMP-7h; details: read-out: Ki MMP-7h; human MMP-7
Sequence of MMP-7h (P09237 95-267): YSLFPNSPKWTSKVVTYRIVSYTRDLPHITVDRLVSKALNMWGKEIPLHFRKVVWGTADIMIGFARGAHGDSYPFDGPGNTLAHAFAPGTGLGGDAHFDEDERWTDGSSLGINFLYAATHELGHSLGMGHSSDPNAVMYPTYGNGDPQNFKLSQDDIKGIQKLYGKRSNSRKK
From the text: as §1, §2

[5] = molecular target: MMP-8h (Homo sapiens (Human), UniProt P22894); test: Inhibition constant (Ki) on MMP-8h; details: human MMP-8
Sequence of MMP-8h (P22894 101-467): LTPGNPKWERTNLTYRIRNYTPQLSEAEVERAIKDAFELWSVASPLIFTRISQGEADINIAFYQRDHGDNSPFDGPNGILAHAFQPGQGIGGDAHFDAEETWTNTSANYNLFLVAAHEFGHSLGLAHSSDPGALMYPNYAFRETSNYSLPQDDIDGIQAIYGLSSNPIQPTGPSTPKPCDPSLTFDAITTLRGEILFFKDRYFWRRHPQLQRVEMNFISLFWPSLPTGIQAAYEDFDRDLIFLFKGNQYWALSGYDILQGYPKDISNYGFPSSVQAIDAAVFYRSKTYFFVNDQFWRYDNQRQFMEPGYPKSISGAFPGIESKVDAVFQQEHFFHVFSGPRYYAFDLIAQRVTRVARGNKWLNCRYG

[6] = molecular target: MMP-9h (Homo sapiens (Human), UniProt P14780); test: Inhibition constant (Ki) on MMP-9h; details: human MMP-9
Sequence of MMP-9h (P14780 94-707): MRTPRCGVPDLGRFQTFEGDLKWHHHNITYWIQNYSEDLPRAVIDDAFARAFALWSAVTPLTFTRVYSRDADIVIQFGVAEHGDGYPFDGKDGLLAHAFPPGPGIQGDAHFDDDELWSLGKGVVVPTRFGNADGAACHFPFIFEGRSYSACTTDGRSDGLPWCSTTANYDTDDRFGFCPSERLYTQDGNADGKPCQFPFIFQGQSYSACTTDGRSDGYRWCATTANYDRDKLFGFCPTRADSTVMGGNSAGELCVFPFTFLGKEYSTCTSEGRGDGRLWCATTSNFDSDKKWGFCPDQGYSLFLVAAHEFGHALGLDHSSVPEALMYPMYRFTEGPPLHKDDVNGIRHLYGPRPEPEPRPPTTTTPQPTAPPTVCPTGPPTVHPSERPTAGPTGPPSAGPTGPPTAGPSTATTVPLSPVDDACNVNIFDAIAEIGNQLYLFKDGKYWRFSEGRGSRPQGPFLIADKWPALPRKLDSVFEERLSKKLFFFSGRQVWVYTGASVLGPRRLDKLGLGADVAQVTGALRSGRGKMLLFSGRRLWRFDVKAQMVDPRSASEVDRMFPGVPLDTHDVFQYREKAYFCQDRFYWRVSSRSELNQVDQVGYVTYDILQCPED
Outline: as §3

[7] = molecular target: MMP-10h (Homo sapiens (Human), UniProt P09238); test: Inhibition constant (Ki) on MMP-10h; details: human MMP-10
Sequence of MMP-10h (P09238 99-476): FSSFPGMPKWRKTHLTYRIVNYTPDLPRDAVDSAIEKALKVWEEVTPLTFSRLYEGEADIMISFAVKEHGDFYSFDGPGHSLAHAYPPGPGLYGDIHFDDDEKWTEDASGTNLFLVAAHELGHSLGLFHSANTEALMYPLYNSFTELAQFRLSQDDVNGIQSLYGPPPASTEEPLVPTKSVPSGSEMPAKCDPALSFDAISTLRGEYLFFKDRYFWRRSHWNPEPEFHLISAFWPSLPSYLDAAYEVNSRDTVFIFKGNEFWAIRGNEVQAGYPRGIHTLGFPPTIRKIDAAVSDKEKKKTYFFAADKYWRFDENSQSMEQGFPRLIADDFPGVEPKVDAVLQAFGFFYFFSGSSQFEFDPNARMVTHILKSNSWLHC

[8] = molecular target: MMP-13h (Homo sapiens (Human), UniProt P45452); test: Inhibition constant (Ki) on MMP-13h; details: human MMP-13
Outline: as §3

[9] = molecular target: MMP-14h (Homo sapiens (Human), UniProt P50281); test: Inhibition constant (Ki) on MMP-14h; details: human MMP-14
Outline: as §3

[10] = molecular target: MMP-12h (Homo sapiens (Human), UniProt P39900); test: Inhibition constant (Ki) on MMP-12h; details: human MMP-12
Sequence of MMP-12h (P39900 106-470): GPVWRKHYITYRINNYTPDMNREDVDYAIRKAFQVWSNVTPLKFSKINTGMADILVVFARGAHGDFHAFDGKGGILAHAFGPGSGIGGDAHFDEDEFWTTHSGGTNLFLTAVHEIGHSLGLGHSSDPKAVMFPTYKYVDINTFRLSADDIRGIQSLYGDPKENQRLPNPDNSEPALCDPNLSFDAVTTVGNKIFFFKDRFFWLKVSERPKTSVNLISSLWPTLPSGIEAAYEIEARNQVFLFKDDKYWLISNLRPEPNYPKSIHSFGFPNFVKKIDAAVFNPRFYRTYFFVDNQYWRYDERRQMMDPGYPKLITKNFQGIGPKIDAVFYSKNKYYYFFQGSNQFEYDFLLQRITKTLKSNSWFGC

Sequence of MMP-1h (P03956 100-469): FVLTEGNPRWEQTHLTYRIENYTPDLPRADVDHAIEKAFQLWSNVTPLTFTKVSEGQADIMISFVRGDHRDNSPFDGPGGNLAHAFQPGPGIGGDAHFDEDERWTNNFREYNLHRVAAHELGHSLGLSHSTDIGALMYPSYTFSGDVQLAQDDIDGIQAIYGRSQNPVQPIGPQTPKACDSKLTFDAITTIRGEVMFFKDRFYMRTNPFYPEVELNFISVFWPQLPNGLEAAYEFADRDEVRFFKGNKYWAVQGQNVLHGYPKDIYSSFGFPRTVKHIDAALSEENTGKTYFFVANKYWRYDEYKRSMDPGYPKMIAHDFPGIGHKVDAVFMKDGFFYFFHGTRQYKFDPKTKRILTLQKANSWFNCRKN

| Compound | Ki [1] [nM] | Ki ([2]; read-out: Ki MMP-2h) [nM] | Ki ([3]; read-out: Ki MMP-3h) [nM] | Ki [4] [nM] | Ki ([5]; read-out: Ki MMP-8h) [nM] | Ki ([6]; read-out: Ki MMP-9h) [nM] | Ki ([7]; read-out: Ki MMP-10h) [nM] | Ki ([8]; read-out: Ki MMP-13h) [nM] | Ki ([9]; read-out: Ki MMP-14h) [nM] | Ki ([10]; read-out: Ki MMP-12h) [nM] | Ki [2] [nM] | Ki [3] [nM] | Ki [5] [nM] | Ki [6] [nM] | Ki [7] [nM] | Ki [10] [nM] | Ki [8] [nM] | Ki [9] [nM] |
| --- | --- | --- | --- | --- | --- | --- | --- | --- | --- | --- | --- | --- | --- | --- | --- | --- | --- | --- |
| NC(=O)[C@H](CCC(=O)O)NC(=O)[C@H](CCC(=O)O)NC(=O)CCc1cc(-c2ccccc2)no1 [Compound 14, (S)-5-amino-4-((S)-4-carboxy-2-(3-(3-phenylisoxazol-5-yl)propanamido)butanamido)-5-oxopentanoic acid] | > 10000 | 756 | > 10000 | > 10000 | 112 | > 1000 | > 1000 | > 1000 | > 1000 | – | – | – | – | – | – | – | – | – |
| NC(=O)[C@H](CCC(=O)O)NC(=O)[C@H](CCC(=O)O)NC(=O)CCc1ccc(-c2ccc(-c3ccccc3)cc2)cc1 [Compound 61, (S)-5-amino-4-((S)-4-carboxy-2-(3-(4′-phenylbiphenyl-4-yl)propanamido)butanamido)-5-oxopentanoic acid] | > 5000 | 53 | 74 | 502 | 132 | > 1000 | 76 | 20 | > 1000 | 1.63 | – | – | – | – | – | – | – | – |
| NC(=O)[C@H](CCC(=O)O)NC(=O)[C@H](CCC(=O)O)NC(=O)CCc1ccc(-c2cccs2)cc1 [Compound 80, (S)-5-amino-4-((S)-4-carboxy-2-(3-(4-(thiophen-2-yl)phenyl)propanamido)butanamido)-5-oxopentanoic acid] | > 100000 | 142 | > 1000 | > 1000 | 40 | > 1000 | 373 | 321 | > 1000 | 8.6 | – | – | – | – | – | – | – | – |
| NC(=O)[C@H](Cc1c[nH]cn1)NC(=O)[C@H](CCC(=O)O)NC(=O)CCc1ccc(-c2cccs2)cc1 [Compound 86, (S)-5-((S)-1-amino-3-(1H-imidazol-4-yl)-1-oxopropan-2-ylamino)-5-oxo-4-(3-(4-(thiophen-2-yl)phenyl)propanamido)pentanoic acid] | – | 371 | > 10000 | – | 63 | > 1000 | > 1000 | > 1000 | > 1000 | 34 | – | – | – | – | – | – | – | – |
| NC(=O)[C@H](CO)NC(=O)[C@H](CCC(=O)O)NC(=O)CCc1ccc(-c2cccs2)cc1 [Compound 87, (S)-5-((S)-1-amino-3-hydroxy-1-oxopropan-2-ylamino)-5-oxo-4-(3-(4-(thiophen-2-yl)phenyl)propanamido)pentanoic acid] | – | 147 | > 10000 | – | 47 | > 1000 | 742 | > 1000 | > 1000 | 16.4 | – | – | – | – | – | – | – | – |
| CC(C)C[C@H](NC(=O)[C@H](CCC(=O)O)NC(=O)CCc1ccc(-c2cccs2)cc1)C(N)=O [Compound 88, (S)-5-((S)-1-amino-4-methyl-1-oxopentan-2-ylamino)-5-oxo-4-(3-(4-(thiophen-2-yl)phenyl)propanamido)pentanoic acid] | – | 298 | > 10000 | – | 73 | > 1000 | > 1000 | > 1000 | > 1000 | 32 | – | – | – | – | – | – | – | – |
| O=C(O)CC[C@H](NC(=O)CCc1ccc(-c2cccs2)cc1)C(=O)N1CCC[C@@H](CC(=O)O)C1 [Compound 89, (S)-5-((S)-3-(carboxymethyl)piperidin-1-yl)-5-oxo-4-(3-(4-(thiophen-2-yl)phenyl)propanamido)pentanoic acid] | – | 484 | > 100000 | – | 94 | > 1000 | > 5000 | > 1000 | > 1000 | 124 | – | – | – | – | – | – | – | – |
| O=C(O)CC[C@H](NC(=O)CCc1ccc(-c2cccs2)cc1)C(=O)Nc1cccc(CC(=O)O)c1 [Compound 90, (S)-5-(3-(carboxymethyl)phenylamino)-5-oxo-4-(3-(4-(thiophen-2-yl)phenyl)propanamido)pentanoic acid] | – | 116 | > 1000 | – | 18 | 284 | 143 | 366 | 430 | 8 | – | – | – | – | – | – | – | – |
| NC(=O)[C@H](CCC(=O)O)NC(=O)[C@H](CCC(=O)O)NC(=O)CCc1ccc(-c2ccc(-c3ccccc3)s2)cc1 [Compound 92, (S)-5-amino-4-((S)-4-carboxy-2-(3-(4-(5-phenylthiophen-2-yl)phenyl)propanamido)butanamido)-5-oxopentanoic acid] | – | 279 | 108 | – | 381 | 874 | 156 | 200 | > 1000 | 2.58 | – | – | – | – | – | – | – | – |
| NC(=O)[C@H](CCC(=O)O)NC(=O)[C@H](CCC(=O)O)NC(=O)CCc1ccc(-c2ccc(-c3nc4ccccc4s3)s2)cc1 [Compound 93, (S)-5-amino-4-((S)-2-(3-(4-(5-(benzo[d]thiazol-2-yl)thiophen-2-yl)phenyl)propanamido)-4-carboxybutanamido)-5-oxopentanoic acid] | – | > 1000 | > 1000 | – | 307 | > 1000 | 38.8 | 33 | > 5000 | 17 | – | – | – | – | – | – | – | – |
| Cc1csc(-c2ccc(CCC(=O)N[C@@H](CCC(=O)O)C(=O)N[C@@H](CCC(=O)O)C(N)=O)cc2)c1 [Compound 94, (S)-5-amino-4-((S)-4-carboxy-2-(3-(4-(4-methylthiophen-2-yl)phenyl)propanamido)butanamido)-5-oxopentanoic acid] | – | 868 | > 1000 | – | 233 | > 1000 | > 1000 | > 1000 | > 10000 | 22 | – | – | – | – | – | – | – | – |
| NC(=O)[C@H](CCC(=O)O)NC(=O)[C@H](CC(=O)O)NC(=O)CCc1ccc(-c2cc(-c3ccccc3)cs2)cc1 [Compound 100, (S)-5-amino-4-((S)-3-carboxy-2-(3-(4-(4-phenylthiophen-2-yl)phenyl)propanamido)propanamido)-5-oxopentanoic acid] | – | 862 | > 1000 | – | 559 | > 1000 | > 1000 | 559 | > 1000 | 15.1 | – | – | – | – | – | – | – | – |
| NC(=O)[C@H](CCC(=O)O)NC(=O)[C@H](CCCC(=O)O)NC(=O)CCc1ccc(-c2cc(-c3ccccc3)cs2)cc1 [Compound 102, (S)-6-((S)-1-amino-4-carboxy-1-oxobutan-2-ylamino)-6-oxo-5-(3-(4-(4-phenylthiophen-2-yl)phenyl)propanamido)hexanoic acid] | – | – | – | – | – | – | – | – | – | – | > 1000 | > 10000 | > 5000 | > 5000 | > 5000 | 56 | 635 | > 10000 |
| NC(=O)[C@H](CCC(=O)O)NC(=O)[C@H](Cc1cnc[nH]1)NC(=O)CCc1ccc(-c2cc(-c3ccccc3)cs2)cc1 [Compound 104, (S)-4-((S)-3-(1H-imidazol-5-yl)-2-(3-(4-(4-phenylthiophen-2-yl)phenyl)propanamido)propanamido)-5-amino-5-oxopentanoic acid] | – | > 5000 | > 10000 | – | > 1000 | > 5000 | > 5000 | > 1000 | > 5000 | 40 | – | – | – | – | – | – | – | – |
| NC(=O)[C@H](CCC(=O)O)NC(=O)CCc1ccc(-c2cc(-c3ccccc3)cs2)cc1 [Compound 105, (S)-5-amino-5-oxo-4-(3-(4-(4-phenylthiophen-2-yl)phenyl)propanamido)pentanoic acid] | > 10000 | 377 | > 1000 | > 10000 | – | > 1000 | > 1000 | 603 | > 1000 | 3.65 | – | – | – | – | – | – | – | – |
| O=C(O)CC[C@H](NC(=O)CCc1ccc(-c2cc(-c3ccccc3)cs2)cc1)C(=O)Nc1cccc(CC(=O)O)c1 [Compound 106, (S)-5-(3-(carboxymethyl)phenylamino)-5-oxo-4-(3-(4-(4-phenylthiophen-2-yl)phenyl)propanamido)pentanoic acid] | > 1000 | 339 | 791 | > 1000 | 675 | 396 | 318 | 132 | > 1000 | 4.3 | – | – | – | – | – | – | – | – |
| Cc1ccsc1-c1ccc(CCC(=O)N[C@@H](CCC(=O)O)C(=O)N[C@@H](CCC(=O)O)C(N)=O)cc1 [Compound 107, (S)-5-amino-4-((S)-4-carboxy-2-(3-(4-(3-methylthiophen-2-yl)phenyl)propanamido)butanamido)-5-oxopentanoic acid] | – | > 1000 | > 10000 | – | 766 | > 10000 | > 1000 | > 1000 | > 5000 | 84 | – | – | – | – | – | – | – | – |
